From US9120791B2, “Indolizine compounds, a process for their preparation and pharmaceutical compositions containing them” (LES LABORATOIRES SERVIER, priority 2012, dated 2015)
Where a name gives a salt, the structure may show the parent alone.

Assays:
[1] = tested on: RS4;11 leukaemia tumour line; experiment: In vitro cytotoxicity (Microculture Tetrazolium Assay, 48 hours); type: cell-based; conditions: Homo sapiens, RS4;11 cells, 48 hours exposure, MTT, concentration that inhibits cell viability by 50%, read-out: IC50 (nM) MTT RS4
Description: The cytotoxicity studies were carried out on the RS4;11 leukaemia tumour line.
The cells are distributed onto microplates and exposed to the test compounds for 48 hours.

[2] = biological target: Bcl-2 protein (Homo sapiens (Human), UniProt P10415); experiment: Inhibition of Bcl-2 by the fluorescence polarisation technique; type: binding; conditions: fluorescence polarisation test; concentration that inhibits fluorescence polarisation by 50%; read-out: IC50 (nM) Bcl-2 FP
Chain of Bcl-2 protein (P10415 whole entry): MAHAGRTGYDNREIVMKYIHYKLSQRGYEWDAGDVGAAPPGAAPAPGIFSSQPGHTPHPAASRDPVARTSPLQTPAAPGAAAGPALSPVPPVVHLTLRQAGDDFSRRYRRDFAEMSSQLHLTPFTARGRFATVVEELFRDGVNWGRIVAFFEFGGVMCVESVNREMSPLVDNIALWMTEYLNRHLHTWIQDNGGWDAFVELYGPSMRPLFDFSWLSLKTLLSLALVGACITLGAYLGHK
Description: The fluorescence polarisation tests were carried out on microplates (384 wells). […] After incubation for 2 hours, the fluorescence polarisation is measured.

SMILES	IC50 [1] [nM]	IC50 [2] [nM]
CN1CC(C)(C)c2cc(N(C(=O)c3cc(-c4cc(Cl)ccc4C(=O)N4Cc5ccccc5C[C@H]4CN4CCOCC4)n4c3CCCC4)c3ccc(O)cc3)ccc21 [Example 49, 3-{5-Chloro-2-[((3S)-3-(4-morpholinylmethyl)-3,4-dihydro-2(1H)-isoquinolinyl)carbonyl]phenyl}-N-(4-hydroxyphenyl)-N-(1,3,3-trimethyl-2,3-dihydro-1H-indol-5-yl)-5,6,7,8-tetrahydro-1-indolizine carboxamide]	169	45
Cl.[2H]C1([2H])Oc2cc(C(=O)N3Cc4ccccc4C[C@H]3CN3CCOCC3)c(-c3cc(C(=O)N(c4ccc(O)cc4)c4ccc(C)c(F)c4)c4n3CCCC4)cc2O1 [Example 51, N-(3-Fluoro-4-methylphenyl)-N-(4-hydroxyphenyl)-3-{2,2-dideuterio-6-[((3S)-3-(4-morpholinylmethyl)-3,4-dihydro-2(1H)-isoquinolinyl)carbonyl]-1,3-benzodioxol-5-yl}-5,6,7,8-tetrahydro-1-indolizine carboxamide hydrochloride]	26	32
O=C(c1cc(-c2cc3c(cc2C(=O)N2Cc4ccccc4C[C@H]2CN2CCOCC2)OCCCO3)n2c1CCCC2)N(c1ccccc1)c1ccc(O)cc1 [Example 31, N-(4-Hydroxyphenyl)-3-{8-[((3S)-3-(4-morpholinylmethyl)-3,4-dihydro-2(1H)-isoquinolinyl)carbonyl]-3,4-dihydro-2H-1,5-benzodioxepin-7-yl}-N-phenyl-5,6,7,8-tetrahydro-1-indolizine carboxamide hydrochloride]	340	33
CN1CCc2cc(N(C(=O)c3cc(-c4cc5c(cc4C(=O)N4Cc6ccccc6C[C@H]4CN4CCOCC4)OCO5)n4ccccc34)c3ccc(O)cc3)ccc21 [Example 61, N-(4-Hydroxyphenyl)-N-(1-methyl-2,3-dihydro-1H-indol-5-yl)-3-{6-[((3S)-3-(4-morpholinylmethyl)-3,4-dihydro-2(1H)-isoquinolinyl)carbonyl]-1,3-benzodioxol-5-yl}-1-indolizine carboxamide hydrochloride]	14.5	22
COc1ccc(C(=O)N2Cc3ccccc3C[C@H]2CN2CCOCC2)c(-c2cc(C(=O)N(c3ccc(O)cc3)c3ccc4c(ccn4C)c3)c3n2CCCC3)c1 [Example 33, N-(4-Hydroxyphenyl)-3-{5-methoxy-2-[((3S)-3-(4-morpholinylmethyl)-3,4-dihydro-2(1H)-isoquinolinyl)carbonyl]phenyl}-N-(1-methyl-1H-indol-5-yl)-5,6,7,8-tetrahydro-1-indolizine carboxamide hydrochloride]	12.2	23
O=C(c1cc(-c2cc(Cl)ccc2C(=O)N2Cc3ccccc3C[C@H]2CN2CCOCC2)n2c1CCCC2)N(c1ccc(O)cc1)c1cc(F)cc(F)c1 [Example 125, 3-(5-Chloro-2-{[(3S)-3-(morpholin-4-ylmethyl)-3,4-dihydroisoquinolin-2(1H)-yl]carbonyl}phenyl)-N-(3,5-difluorophenyl)-N-(4-hydroxyphenyl)-5,6,7,8-tetrahydroindolizine-1-carboxamide hydrochloride]	81.8	38
Cn1ncc2cc(N(C(=O)c3cc(-c4cc(F)ccc4C(=O)N4Cc5ccccc5C[C@H]4CN4CCOCC4)n4c3CCCC4)c3ccc(O)cc3)ccc21 [Example 44, 3-{5-Fluoro-2-[((3S)-3-(4-morpholinylmethyl)-3,4-dihydro-2(1H)-isoquinolinyl)carbonyl]phenyl}-N-(4-hydroxyphenyl)-N-(1-methyl-1H-indazol-5-yl)-5,6,7,8-tetrahydro-1-indolizine carboxamide hydrochloride]	45	14
CN1CCN(C[C@@H]2Cc3ccccc3CN2C(=O)c2ccc(Cl)cc2-c2cc(C(=O)N(c3ccc(O)cc3)c3ccc4c(ccn4C)c3)c3ccccn23)CC1 [Example 65, 3-{5-Chloro-2-[((3S)-3-[(4-methyl-1-piperazinyl)methyl]-3,4-dihydro-2(1H)-isoquinolinyl)carbonyl]phenyl}-N-(4-hydroxyphenyl)-N-(1-methyl-1H-indol-5-yl)-1-indolizine carboxamide bis(hydrochloride)]	9.19	14
N#Cc1cccc(N(C(=O)c2cc(-c3cc(Cl)ccc3C(=O)N3Cc4ccccc4C[C@H]3CN3CCOCC3)n3c2CCCC3)c2ccc(O)cc2)c1 [Example 119, 3-(5-Chloro-2-{[(3S)-3-(morpholin-4-ylmethyl)-3,4-dihydroisoquinolin-2(1H)-yl]carbonyl}phenyl)-N-(3-cyanophenyl)-N-(4-hydroxyphenyl)-5,6,7,8-tetrahydroindolizine-1-carboxamide hydrochloride]	31.6	9
N#Cc1ccccc1N(C(=O)c1cc(-c2cc(Cl)ccc2C(=O)N2Cc3ccccc3C[C@H]2CN2CCOCC2)n2c1CCCC2)c1ccc(O)cc1 [Example 134, 3-(5-Chloro-2-{[(3S)-3-(morpholin-4-ylmethyl)-3,4-dihydroisoquinolin-2(1H)-yl]carbonyl}phenyl)-N-(2-cyanophenyl)-N-(4-hydroxyphenyl)-5,6,7,8-tetrahydroindolizine-1-carboxamide hydrochloride]	305	37
O=C(c1cc(-c2cc3c(cc2C(=O)N2Cc4ccccc4C[C@H]2CN2CCOCC2)OCCO3)n2c1CCCC2)N(c1ccccc1)c1ccc(O)cc1 [Example 34, N-(4-Hydroxyphenyl)-3-{7-[((3S)-3-(4-morpholinylmethyl)-3,4-dihydro-2(1H)-isoquinolinyl)carbonyl]-2,3-dihydro-1,4-benzdioxin-6-yl}-N-phenyl-5,6,7,8-tetrahydro-1-indolizine carboxamide hydrochloride]	65.8	27
Cn1ccc2cc(N(C(=O)c3cc(-c4cc5c(cc4C(=O)N4Cc6ccccc6C[C@H]4CN4CCOCC4)OCO5)n4c3COCC4)c3ccc(O)cc3)ccc21 [Example 80, N-(4-Hydroxyphenyl)-N-(1-methyl-1H-indol-5-yl)-6-{6-[((3S)-3-(4-morpholinylmethyl)-3,4-dihydro-2(1H)-isoquinolinyl)carbonyl]-1,3-benzodioxol-5-yl}-3,4-dihydro-1H-pyrrolo[2,1-c][1,4]oxazine-8-carboxamide]	18.8	18
Cn1ccc2cc(N(C(=O)c3cc(-c4cc(Cl)ccc4C(=O)N4Cc5ccccc5C[C@H]4CN4CCOCC4)n4c3CCCC4)c3ccc(O)c(F)c3)ccc21 [Example 55, 3-{5-Chloro-2-[((3S)-3-(4-morpholinylmethyl)-3,4-dihydro-2(1H)-isoquinolinyl)carbonyl]phenyl}-N-(3-fluoro-4-hydroxyphenyl)-N-(1-methyl-1H-indol-5-yl)-5,6,7,8-tetrahydro-1-indolizine carboxamide hydrochloride]	19.4	34
CN1CCc2cc(N(C(=O)c3cc(-c4cc5c(cc4C(=O)N4Cc6ccccc6C[C@H]4CN4CCOCC4)OCO5)n4c3COCC4)c3ccc(O)cc3)ccc21 [Example 81, N-(4-Hydroxyphenyl)-N-(1-methyl-2,3-dihydro-1H-indol-5-yl)-6-{6-[((3S)-3-(4-morpholinylmethyl)-3,4-dihydro-2(1H)-isoquinolinyl)carbonyl]-1,3-benzodioxol-5-yl}-3,4-dihydro-1H-pyrrolo[2,1-c][1,4]oxazine-8-carboxamide hydrochloride]	39.3	28
